# Calls of active or inactive are those of the source. The rule behind the calls is not given here.
# Tested on: human cells, XBP1 mRNA qRT-PCR
# Experiment: compound effect on XBP1 transcript levels – cell-based, quantitative RT-PCR, medium throughput (AID 652064)
row,SMILES,IC50
1,Cc1cc(C(=O)COC(=O)c2ccccc2O)c(C)n1Cc1cccs1,8.67 µM (inactive)
2,CCOc1ccc(-c2nc(CSCC(=O)NCc3ccco3)c(C)o2)cc1,7.45 µM (inactive)
3,C=CCn1c(C)cc(C2=NN=C(NCC)SC2)c1C,6.85 µM (inactive)
4,Cc1nn(C(C)(C)C)c(C)c1/C=N/OC(=O)Nc1ccc(Cl)cc1,20.1 µM (inactive)

# Results, then the compound that gave them:
row,IC50,SMILES
1,> 20 µM (inactive),Cc1ccc(NC(=O)c2cc3ccccc3oc2=O)cc1S(=O)(=O)N(C)C
2,10.2 µM (inactive),CCN=C1NN=C(c2cc(C)n(Cc3ccco3)c2C)CS1
3,> 20 µM (inactive),CC(C)(C)c1ccc(C(=O)Nc2ccc(CC(=O)O)cc2)o1
4,10.1 µM (inactive),Cc1ccc(NC(=O)O/N=C/c2c(C)nn(C(C)(C)C)c2C)cc1Cl
5,> 20 µM (inactive),CC(C)(C)c1ccc(-c2noc(CCC(N)=O)n2)cc1
6,6.31 µM (inactive),Cc1cc(C2=NNC(=NC3CC3)SC2)c(C)n1-c1ccccc1F
7,4.78 µM (inactive),Cc1cc(C2=NNC(=NC3CC3)SC2)c(C)n1-c1ccccc1
